Results published in patent EP1764363A2, “Substituted acetophenonederivatives” (Riemser Arzneimittel AG, priority 2005, dated 2007).
Values after ≈ are worked out from the molar mass of the structure shown.

Experiments:
[1] = system: Bacillus subitilis; test: Minimal inhibitory concentration (MHK), microtitre plate, TTC staining; type: cell-based; conditions: 48h, 36°C
[2] = system: Micrococcus luteus; test: as above; type: cell-based; conditions: 48h, 36°C
[3] = system: Rhodococcus equi; test: as above; type: cell-based; conditions: 48h, 36°C
[4] = system: S. falcium; test: as above; type: cell-based; conditions: 48h, 36°C
[5] = system: Salmonella sp; test: as above; type: cell-based; conditions: 48h, 36°C
From the text: Das Inokulum für die Tests wurde durch Verdünnung der Mikroorganismen in wässriger 0,85% NaCI-Lösung hergestellt, die Verdünnung auf die Stufe 0,5 nach McFarland eingestellt und die Konzentration spektrometrisch bei einer Wellenlänge von 580nm überprüft. Die Zellsuspensionen wurden zur Verwendung in den Tests auf 10^4 UFC/ml verdünnt. Die MHK-Tests erfolgten (Vorschrift nach J. N. P. Eloff, Planta Medica, Vol. 64, 1998, p 711-713) in Mikrotiterplatten mit 96 Vertiefungen. Serienverdünnungen der Konzentrationen lagen im Bereich 1,00 - 0,0015 mg/mL. Als Kontrollsubstanzen dienten Chloramphenicol bzw. Nistatin (Merck) in einer Konzentration von 0,062 - 0,005 mg/ml bzw. 0,0125 - 0,001 mg/ml. Das Inokulum (100 µl) wurde in alle Vertiefungen gegeben und die Platten für 48h bei 36°C inkubiert. Die antimikrobielle Aktivität wurde durch Zugabe von 20 µl einer 0,5% igen wässrigen Lösung von TTC (Tetrazoliumchlorid, Merck) pro Vertiefung detektiert. Die minimale Hemmkonzentration (MHK) wird als die niedrigste Konzentration der Verbindung definiert die das sichtbare Wachstum hemmt (durch TTC-Färbung indiziert).

[6] = system: Escherichia coli; test: as above; type: cell-based; conditions: 48h, 36°C
[7] = system: S. aureus; test: as above; type: cell-based; conditions: 48h, 36°C
[8] = system: E. hirae; test: as above; type: cell-based; conditions: 48h, 36°C
[9] = system: S. epidermides; test: as above; type: cell-based; conditions: 48h, 36°C
[10] = system: Candida albicans; test: as above; type: cell-based; conditions: 48h, 36°C
[11] = system: Staphylococcus aureus (Stamm ATCC 6538); test: Mouse ear test (in vivo), antiseptic effect; set-up: key to Keimwachstum (grade): +++: totale Verhinderung des Keimwachstums; ++: Keimwachstum deutlich reduziert aber nicht völlig unterdrückt; conditions: mouse ears infected with S. aureus ATCC 6538; germ count vs infected untreated animal after 18 and 24 h
[12] = system: Colo205; test: Chemosensitivity test (modified MTT test EZ4U); conditions: Homo sapiens, COLO 205, 96 h, read-out: IC50-Werte
Method: (§1) Die Verbindungen wurden in Dimethylsulfoxid (DMSO) als konzentrierte Stammlösungen (100-400fach) gelöst und für Proliferationstests in Zellkulturmedium verdünnt.
(§2) Die Zellen wurden auf Verunreinigung durch Mycoplasmen untersucht. Das Medium wurde mit 10% hitzeinaktiviertem foetalem Kälberserum (Seromed) and 4 mM Glutamin ergänzt. Die Zellen wurden durch Trypsinierung subkultiviert (0.03% Trypsin enthaltend 0.02% EDTA, dreimal pro Woche). Die Trypsinierung wurde durch Verwendung vom komplettem Zellkulturmedium gestoppt. Die Zellzahl wurde unter Verwendung eines TOA Sysmex Microzellzählers (TOA, Tokyo, Japan) bestimmt.
(§3) 10^4 Zellen/well wurden in Mikrotiterplatten mit 96 Vertiefungen (100 µl Medium) verteilt und die zu testenden Verbindungen wurden in einem weiteren Volumen von 100 µl hinzugegeben. Alle Verbindungen wurden entweder in 3 fixen Konzentrationen eingesetzt (für Tabellen 1-3) oder in 10 Stufen verdünnt unter Verwendung von Zweifachverdünnungsschritten zur Bestimmung der IC50-Werte (dreifache Ansätze, in den meisten Fällen vierfache Ansätze). Die Platten wurden, mit der Ausnahme der Tests zur Untersuchung des Zusammenhangs von Applikationsdauer und Zellreaktion, 4 Tage lang unter Zellkulturbedingungen inkubiert und die Zellviabilität wurde unter Verwendung eines modifizierten MTT Tests bestimmt (Formazan-Farbstoffbildung aus Tetrazoliumsalzen wie MTT, XTT, WST-1 und anderen durch das mitochondriale Reduktionsystem Succinattetrazolium Reductase EC 1.3.99.1.; EZ4U nichtradioaktiver Zellproliferations- und Cytotoxizitätstest, Biomedica, Wien, Österreich; Testmanual unter: www.bmgrp.com). Hierbei wurde die mitochondriale Aktivität und dadurch die Zellviabilität/Zellzahl bestimmt. Kurz gesagt wurde das gelieferte Substrat in einer Aktivatorlösung gelöst und 20 µl der Mischung wurden für 2 Stunden pro Vertiefung hinzugegeben (Gesamtvolumen 200 µl). Die optische Dichte wurde bei 450 nm unter Verwendung einer leeren Vertiefung als Referenz in einem Mikroplattenlesegerät (Eurogenetics, Brüssel, Belgien) bestimmt. Für jede Zell-Line wurden Vertiefungen verwendet um das MTT-Signal der Mediumkontrollen ohne Testsubstanzen zu bestimmen. Die Proliferation in den Test-Vertiefungen wurde in Bezug auf diese Kontrollwerte (100%) errechnet. Die Testergebnisse wurden zwischen 0,3 und 1,5 optischer Dichte für langsam bzw. schnellproliferierende Zellen erfasst. Diese Dosis-Wirkungs-Beziehungen wurden verwendet um die IC50 (Konzentration bei der das Wachstum um 50% gehemmt wird) unter Verwendung von PRISM Scientific Software (GraphPad Inc., San Diego, CA) zu berechnen.

[13] = system: T47D; test: Chemosensitivity test (modified MTT test EZ4U); conditions: Homo sapiens, T47D, 96 h, read-out: IC50-Werte
Method: as §1, §2, §3

[14] = system: MIAPaCa2; test: Chemosensitivity test (modified MTT test EZ4U); conditions: Homo sapiens, MIA PaCa-2, 96 h, read-out: IC50-Werte
Method: as §1, §2, §3

[15] = system: WI38; test: Chemosensitivity test (modified MTT test EZ4U); conditions: Homo sapiens, WI-38, 96 h, read-out: IC50-Werte
Method: as §1, §2, §3

[16] = system: CRO2B; test: Chemosensitivity test (modified MTT test EZ4U); conditions: Homo sapiens, 96 h, read-out: IC50-Werte
Method: as §1, §2, §3

[17] = system: SW620; test: Chemosensitivity test (modified MTT test EZ4U); conditions: Homo sapiens, SW-620, 96 h, read-out: IC50-Werte
Method: as §1, §2, §3

[18] = system: CaCo-2; test: Chemosensitivity test (modified MTT test EZ4U); conditions: Homo sapiens, Caco-2, 96 h, read-out: IC50-Werte
Method: as §1, §2, §3

[19] = system: HT29; test: Chemosensitivity test (modified MTT test EZ4U); conditions: Homo sapiens, HT-29, 96 h, read-out: IC50-Werte
From the text: as §1
(§4) Mit Ausnahme von SIM, KAL Ewingsarkom (in Wien etabliert) und LAN Neuroblastom (University of Los Angeles) wurden die Zell-Linien von der American Type Culture Collection (ATCC, Rockville, MD) bezogen und zum Erhalt von konfluenten Monolayerkulturen in RPMI-1640 Bikarbonatmedium (Seromed, Berlin, Deutschland) in einem Zellkulturschrank (5% CO2, 37°C) kultiviert. Mit der Ausnahme der murinen NlH3T3 Fibroblasten sind alle verwendeten Zell-Linien humanen Ursprungs. Die Zellen wurden auf Verunreinigung durch Mycoplasmen untersucht. Das Medium wurde mit 10% hitzeinaktiviertem foetalem Kälberserum (Seromed) and 4 mM Glutamin ergänzt. Die Zellen wurden durch Trypsinierung subkultiviert (0.03% Trypsin enthaltend 0.02% EDTA, dreimal pro Woche). Die Trypsinierung wurde durch Verwendung vom komplettem Zellkulturmedium gestoppt. Die Zellzahl wurde unter Verwendung eines TOA Sysmex Microzellzählers (TOA, Tokyo, Japan) bestimmt.
(§5) 10^4 Zellen/well wurden in Mikrotiterplatten mit 96 Vertiefungen (100 µl Medium) verteilt und die zu testenden Verbindungen wurden in einem weiteren Volumen von 100 µl hinzugegeben. […]

[20] = system: MDA-MB435; test: Chemosensitivity test (modified MTT test EZ4U); conditions: Homo sapiens, MDA-MB-435, 96 h, read-out: IC50-Werte
From the text: as §1, §4, §5

[21] = system: BT20; test: Chemosensitivity test (modified MTT test EZ4U); conditions: Homo sapiens, BT-20, 96 h, read-out: IC50-Werte
From the text: as §1, §4, §5

[22] = system: DU 145; test: Chemosensitivity test (modified MTT test EZ4U); conditions: Homo sapiens, DU-145, 96 h, read-out: IC50-Werte
From the text: as §1, §4, §5

[23] = system: BxPC3; test: Chemosensitivity test (modified MTT test EZ4U); conditions: Homo sapiens, BXPC-3, 96 h, read-out: IC50-Werte
From the text: as §1, §4, §5

## COc1cc(/C=C/C(=O)c2ccccc2O)ccc1OCC=C(C)C [Q21, 1-(2-Hydroxyphenyl)-3-[3-methoxy-4-(3-methylbut-2-enyloxy)phenyl]propenon]
[1]
  MHK-Werte: >1,0 mg/ml
[2]
  MHK-Werte: >1,0 mg/ml
[3]
  MHK-Werte: >1,0 mg/ml
[4]
  MHK-Werte: 0,8 mg/ml
[5]
  MHK-Werte: 0,9 mg/ml
[6]
  MHK-Werte: >1,0 mg/ml
[7]
  MHK-Werte: >1,0 mg/ml
[8]
  MHK-Werte: >1,0 mg/ml
[9]
  MHK-Werte: >1,0 mg/ml
[10]
  MHK-Werte: 0,6 mg/ml

## COc1cc(C2CC(=O)c3ccccc3O2)ccc1OCC=C(C)C (stereo not drawn) [Q25, 2-[3-Methoxy-4-(3-methylbut-2-enyloxy)phenyl]chroman-4-on]
[11]
  Keimwachstum (grade): ++
  Keimwachstum reduziert auf: 30%
[12]
  IC50: 75 µg/mL (≈ 222 µM)
[13]
  IC50: 10 µg/mL (≈ 29.6 µM)
[14]
  IC50: 57 µg/mL (≈ 168 µM)
[15]
  IC50: 8.2 µg/mL (≈ 24.2 µM)
[16]
  IC50: 6 µg/mL (≈ 17.7 µM)
[17]
  IC50: 84 µg/mL (≈ 248 µM)
[18]
  IC50: 18 µg/mL (≈ 53.2 µM)
[19]
  IC50: 18 µg/mL (≈ 53.2 µM)
[20]
  IC50: 34 µg/mL (≈ 100 µM)
[21]
  IC50: 45 µg/mL (≈ 133 µM)
[22]
  IC50: 15 µg/mL (≈ 44.3 µM)
[23]
  IC50: 80 µg/mL (≈ 236 µM)
